Source: publication PMC10641818, “Development of First-in-Class Dual Sirt2/HDAC6 Inhibitors as Molecular Tools for Dual Inhibition of Tubulin Deacetylation” (Journal of Medicinal Chemistry, 2023)

Test system: histone H3 acetylation (marker of HDAC1-3 inhibition)
Assay: Western blot on histone H3 hyperacetylation in MCF-7 cells
Format: cell-based
Settings: 24 h, 10 µM
Method: Western blots on histone H3 hyperacetylation in MCF-7 cells were performed according to a previously published protocol.[72] In brief, MCF-7 were centrifuged (450g, 4 min, 22 °C) and lysed with cell extraction buffer (Thermo Fisher), supplemented with 0.1 mM PMSF, Halt Protease Inhibitor (Thermo Fisher), and Natriumorthovanadat (Thermo Fisher). Precast gels with a polymerization degree of 4–15% were used (Mini-PROTEAN TGX Stain-Free; Bio-Rad Laboratories GmbH, Munich, Germany). Proteins were transferred to Trans-Blot Turbo-PVDF membrane (Bio-Rad). The membrane was blocked with skimmed milk powder in Tris-buffered saline-Tween 20 (with 0.2% Tween 20) for 60 min, followed by three washing cycles of 10 min using Tris-buffered saline-Tween 20. Afterward, membranes were incubated with primary antibodies for ac.-Histon H3 (Cell Signal, rabbit) and GAPDH (Gene Tex, Irvine, USA, mouse) for a total of 60 min at room temperature and then incubated at 4 °C overnight. […] After rinsing of the secondary antibody, membranes were detected using ClarityECL Western Blotting Substrate (Bio-Rad). For quantitative determination, the StainFree technique was employed (Bio-Rad), as well as normalization, against the housekeeping protein GAPDH, which allows the imaging of whole lysates in SDS-PAGE before blotting and normalization against the total protein. […]

## CCCCN(Cc1ccc(C(=O)NO)cc1)C(=O)CCCCn1cc(COc2cccc(Cc3cnc(NC(=O)CSc4nc(C)cc(C)n4)s3)c2)nn1 [Compound 33, 4-((N-Butyl-5-(4-((3-((2-(2-((4,6-dimethylpyrimidin-2-yl)thio)acetamido)thiazol-5-yl)methyl)phenoxy)methyl)-1H-1,2,3-triazol-1-yl)pentanamido)methyl)-N-hydroxybenzamide]
  Histone H3 hyperacetylation (cellular class I HDAC off-target inhibition): no significant off-target inhibition of class I
